According to patent publication US20240415826A1, “[…] OF A GENE ENCODING AN […] BY TREATING A HUMAN SUBJECT WITH A NITROXIDE” (priority 2021, published 2024):

Legend:
UCP2 [1] = experiment: Effects of Tempol on gene expression in cardiac tissue of mice, chip-based microarray; format: in vivo; conditions: 5 mg/g of food from 14 to 31 months after birth
Method: To assess the effects of Tempol on gene expression, Tempol was administered to experimental mice at a dose of 5 mg/g of food from 14 months to 31 months after birth. Mice receiving the same food without the addition of Tempol were used as a negative control. At the age of 31 months, the experimental animals were sacrificed and the hearts were surgically removed. The expression of a broad spectrum of genes in the cardiac tissue was assessed using chip-based microarray technology. Such chips are well known in the art and are widely used to assess gene expression.

UCP2 [2] = experiment: Treating a human subject with Tempol, serum level of UCP2 following treatment; format: in vivo; conditions: 2000 mg per day for 180 days
Method: (§1) A 70-kilogram human subject over the age of 65 is identified as having, or known to have, or suspected of having an increased expression level of UCP2. The human subject is administered a dose of 2000 mg of Tempol (or another nitroxide antioxidant) per day for 180 days. This may be administered in a single dose, or may be administered as a number of smaller doses over a 24-hour period: for example, four 500-mg doses at […]. Following treatment, the serum level of UCP2, is decreased.
as §1, with “subject” for “subject over the age of 65”
as §1, with “65 and having a cardiovascular disease” for “65”, “for an increased expression level of UCP2. Or a 70-kilogram human subject over the age of 65 is” for “as having, or”, “have a cardiovascular disease and/or” for “have, or suspected of having an”
as §1, with “at risk” for “over the age”, “developing colorectal cancer” for “65”, “for increased expression level of UCP2. Or a 70-kilogram human subject is” for “as having, or”, “be at risk” for “have, or suspected”, “developing colorectal cancer and/or have” for “having an”
A 70-kilogram human subject at risk of developing an autoimmune disease (e.g., rheumatoid arthritis) is identified for increased expression level of UCP2. Or a 70-kilogram human subject is known to be at risk of developing an autoimmune disease and/or have increased expression level of UCP2. The human subject is administered a dose of 2000 mg of Tempol (or another nitroxide antioxidant) per day for 180 days. This may be administered in a single dose, or may be administered as a number of smaller doses over a 24-hour period: for example, four 500-mg doses at […]. Following treatment, the serum level of UCP2, is decreased.
A 70-kilogram human subject of person at risk of developing a condition due to aging is identified. Or a 70-kilogram human subject of person is known to be at risk of developing a condition. The human subject is administered a dose of 2000 mg of Tempol (or another nitroxide antioxidant) per day for 180 days. This may be administered in a single dose, or may be administered as a number of smaller doses over a 24-hour period: for example, four 500-mg doses at […]. Following treatment, the serum level of UCP2, is decreased.
A 70-kilogram human subject at risk of developing a neurodegenerative disease (e.g., Parkinson's Disease) is identified for increased expression level of UCP2. Or a 70-kilogram human subject is known to be at risk of developing a neurodegenerative disease and/or have increased expression level of UCP2. The human subject is administered a dose of 2000 mg of Tempol (or another nitroxide antioxidant) per day for 180 days. […]

## CC1(C)CC(O)CC(C)(C)N1[O] [Tempol, 4-hydroxy-2,2,6,6-tetramethylpiperidine-1-oxyl]
UCP2 [1]; hearts at 31 months, vs. same food without Tempol, P-value 0.012
  Fold change (UCP2 expression in cardiac tissue after Tempol administration): −1.61
UCP2 [1]; microarray
  UCP2 expression in cardiac tissue (result in words): statistically significant decrease in expression
UCP2 [2]; Example 2: 70-kilogram human subject over the age of 65 with increased UCP2 expression
  serum level of UCP2 following treatment: decreased
UCP2 [2]; Example 3: 70-kilogram human subject with increased UCP2 expression
  serum level of UCP2 following treatment: decreased
UCP2 [2]; Example 4: human subject over the age of 65 having a cardiovascular disease
  serum level of UCP2 following treatment: decreased
UCP2 [2]; Example 5: human subject at risk of developing colorectal cancer
  serum level of UCP2 following treatment: decreased
UCP2 [2]; Example 6: human subject at risk of developing an autoimmune disease
  serum level of UCP2 following treatment: decreased
UCP2 [2]; Example 7: human subject at risk of developing a condition due to aging
  serum level of UCP2 following treatment: decreased
UCP2 [2]; Example 8: human subject at risk of developing a neurodegenerative disease
  serum level of UCP2 following treatment: decreased
UCP2 [2]; Example 9: human subject having an infection
  serum level of UCP2 following treatment: decreased
